# Assay results taken from PubChem BioAssay AID602389 (Broad Institute, 2012).
# Active and inactive are the calls of the source.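 Rule for the calls: active = growth down by 35% or more in duplicate, reached at no more than twice the top tested dose; inactive = growth raised instead, and the rest.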
# What was measured:
# [1] = Pseudomonas aeruginosa growth inhibition with EDDHA – absorbance, plate reader, cherry-picks, dose response (AID 602389); conditions: P. aeruginosa growth with EDDHA, OD600, 24-30 h; at 50 µM (top of the series)
# [2] = system: P. aeruginosa growth with EDDHA, OD600, 24-30 h; test: as above
SMILES,"growth change, negative = inhibition [1]",AC35 [2]
CC(C)N=C(NC#N)SCc1ccccc1F,-1.36% (inactive),–
OC(c1cccc(Cl)c1)c1nccc2ccccc12 (stereo not drawn),-6.69% (inactive),–
CN(Cc1ccccc1)c1ncnc2ccc(Br)cc12,9.04% (inactive),–
CCOC(=O)c1cc2c(s1)-c1c(C)cccc1OC2,6.54% (inactive),–
CCC(C)NS(=O)(=O)c1ccc(OC)c(Cl)c1Cl (stereo not drawn),-10.7% (inactive),–
O=C(NCC1CC1)c1cc([N+](=O)[O-])cc([N+](=O)[O-])c1,7.47% (inactive),–
Cc1ccc(C(C#N)c2ccc(Cl)nn2)cc1 (stereo not drawn),-0.103% (inactive),–
O=C1C=C(c2cccc(Cl)c2)C[C@@H](c2ccc(F)cc2)C1,17.4% (inactive),–
O=C1C2C(C(=O)N1Cc1ccco1)C1C=CC2C12CC2 (stereo not drawn),2.46% (inactive),–
COc1ccc(-c2cc3ncccc3cn2)cc1,7% (inactive),–
O=C(NC1CCCC1)c1cccc(Cl)c1,7.87% (inactive),–
CCOC(=O)c1ccc(N2Cc3ccccc3C2=N)cc1,-6.69% (inactive),–
O=C1N[C@@H](Cc2ccccc2)[C@@H](c2ccco2)O1,16.2% (inactive),–
Cc1cc(NC(=O)c2cc([N+](=O)[O-])ccc2Cl)no1,24.8% (inactive),–
N#CC(c1cccc(Cl)c1)c1ncc(C(F)(F)F)cc1Cl (stereo not drawn),1.76% (inactive),–
N#CC(c1ccc(Cl)cc1)c1cccc(Cl)n1 (stereo not drawn),–,41.2 µM
CCOc1ccc(CNC2CCCc3ccccc32)cc1 (stereo not drawn),20.8% (inactive),–
N#CCn1c(C2CCCCC2)nc2ccccc2c1=O,17.3% (inactive),–
COC(=O)c1ccc(OC(=O)c2cccs2)cc1,6.21% (inactive),–
COc1ccc(N=C(C)C2=C(O)CSC2=O)cc1,15.6% (inactive),–
CCOC(=O)CCCn1ncn2c(cc3occc32)c1=O,-2.87% (inactive),–
N#CC(c1ccc(Cl)nn1)c1c(F)cccc1Cl (stereo not drawn),15% (inactive),–
COC(=O)c1cc(-c2ccc(OC)cc2)on1,-7.05% (inactive),–
CSC1=N/C(=C\C=C\c2cccs2)C(=O)S1,13.6% (inactive),–
CC(C)(C)NC(=O)c1cc(Cl)ccc1[N+](=O)[O-],12.1% (inactive),–

SMILES,"growth change, negative = inhibition [1]",AC35 [2]
CCOC(=O)c1cnc(-c2ccccc2)nc1N,-4.77% (inactive),–
Cc1cc(S(=O)(=O)NCC2CC2)c(Cl)cc1Cl,9.74% (inactive),–
COc1ccc(CNCc2cccc(Cl)c2)cc1,4.12% (inactive),–
CCOc1ccc(-n2cccc2C=O)cc1,1.21% (inactive),–
Cn1cccc1C(C#N)c1cccc(F)c1C#N (stereo not drawn),7.38% (inactive),–
Clc1cccc(CNCCCSc2ncccn2)c1,-7.39% (inactive),–
COc1ccc(N2CCN(C(=O)c3ccc(Br)o3)CC2)cc1,-4.3% (inactive),–
CCOC(=O)CC(C#N)c1cn(C)c2ccccc12 (stereo not drawn),-0.14% (inactive),–
O=[N+]([O-])c1ccc(N2CCCC2)nc1,9.43% (inactive),–
N#CC1C(C#N)C2CCC1C1C2N1c1ccccc1 (stereo not drawn),-7.23% (inactive),–
Cc1ccc(S(=O)c2ccc(C)cc2)cc1,0.078% (inactive),–
N#Cc1cc([N+](=O)[O-])ccc1N1CCCC1,-11.4% (inactive),–
COc1ccccc1C(C#N)c1cccc(Cl)n1 (stereo not drawn),5.02% (inactive),–
Cc1cc(C)nc(N(C#N)Cc2ccccc2)n1,–,> 50 µM (inactive)
N#C/C(=C/c1ccco1)c1nc2ccccc2s1,18.7% (inactive),–
N#CC(c1ccc(Cl)nn1)c1ccc(Cl)cc1Cl (stereo not drawn),-0.745% (inactive),–
N#CC(c1ccc(Cl)cc1)c1ncc(C(F)(F)F)cc1Cl (stereo not drawn),-14% (inactive),–
N#CC(c1ccc(Cl)nn1)c1ccccc1Cl (stereo not drawn),-4.43% (inactive),–
Cc1cccc(C(C#N)c2ccc(Cl)nn2)c1 (stereo not drawn),–,> 50 µM (inactive)
Cc1ccc2scc(CN3CCCC3)c2c1,-6.73% (inactive),–
O=C(NC1CCCC1)c1cc(Cl)ccc1[N+](=O)[O-],7.04% (inactive),–
Cc1cccc(NC(=O)Nc2cc(C)on2)c1,2.69% (inactive),–
c1ccn2cc(-c3ccc4c(c3)OCCO4)nc2c1,–,> 50 µM (inactive)
O=C1C=C(c2cc(F)ccc2F)C[C@@H](c2ccc(F)cc2)C1,-1.93% (inactive),–
O=C(Nc1ncc([N+](=O)[O-])s1)c1cccc([N+](=O)[O-])c1,-9.89% (inactive),–

SMILES,"growth change, negative = inhibition [1]",AC35 [2]
Clc1ccc2scc(CN3CCCC3)c2c1,-1.16% (inactive),–
Clc1ccc2scc(CN3CCCCC3)c2c1,-3.92% (inactive),–
CCOC(=O)N1CCN(c2ccc(Cl)cc2)CC1,-0.021% (inactive),–
CSc1nnc(-c2ccc([N+](=O)[O-])cc2)o1,-9.96% (inactive),–
Cc1ccc2nc(-c3ccc4c(c3)OCCO4)cn2c1,3.5% (inactive),–
O=C(/C=C/c1cccs1)c1cc(Cl)ccc1O,18.9% (inactive),–
COc1ccc(/C(C#N)=C/c2cccnc2)cc1,-1.53% (inactive),–
Cn1cccc1C(C#N)c1ccccc1C#N (stereo not drawn),9.31% (inactive),–
CCNC(=O)COc1ccc2ccccc2c1,3.07% (inactive),–
CCCNS(=O)(=O)c1ccc(OC)c(Cl)c1Cl,-7.21% (inactive),–
O=S1(=O)CCOC[C@H](c2ccccc2)N1Cc1cccc(Cl)c1,7.06% (inactive),–
O=C(NC1CCS(=O)(=O)C1)c1cccc(Br)c1 (stereo not drawn),–,> 50 µM (inactive)
CCOC(=O)/C=C(\C)Sc1cc(=O)oc2ccccc12,19.4% (inactive),–
CCOC(=O)c1ccc(-c2ccc(CO)o2)cc1,-6.54% (inactive),–
O=C(NC1CCSC1)c1cccc(Cl)c1 (stereo not drawn),2.12% (inactive),–
N#CC(Sc1ccccn1)c1ccc(Cl)cc1 (stereo not drawn),15.4% (inactive),–
O=CN(c1ccccc1)c1ccc2ccccc2c1,-5.6% (inactive),–
O=[N+]([O-])c1ccc(N2CCCCC2)nc1,-2.09% (inactive),–
Cc1cccc(NC(=O)c2ccc3c(c2)OCCO3)n1,2.6% (inactive),–
CC(C)CCNC(=O)c1cccc(Cl)c1,-12.3% (inactive),–
O=C(NC1CCCCCCC1)c1cccc(Cl)c1,-14.2% (inactive),–
Cn1cccc1C(=O)OCc1cc(-c2ccco2)on1,6.86% (inactive),–
COC(=O)c1ccc(OC(=O)c2ccco2)cc1,-12.9% (inactive),–
O=CNC1(c2ccccc2)CCCCC1,-5.85% (inactive),–
O=[N+]([O-])c1ccc(-c2cccnc2)cc1,-3.69% (inactive),–

SMILES,"growth change, negative = inhibition [1]",AC35 [2]
Cc1cc(C)nc(N(C#N)Cc2cccc([N+](=O)[O-])c2)n1,12.9% (inactive),–
O=CC1=C(c2ccccc2)Oc2ccccc2O1,-4.48% (inactive),–
O=C1C2C3C=CC(C4CC34)C2C(=O)N1Cc1ccco1 (stereo not drawn),43.3% (inactive),–
COc1ccc(/C=C/C(=O)c2ccoc2)cc1,4.86% (inactive),–
Cc1ccc(O)c(C(=O)/C=C/c2ccc3c(c2)OCCO3)c1,19.8% (inactive),–
Cc1ccc(C)c(S(=O)(=O)NC2CCSC2=O)c1 (stereo not drawn),-4.84% (inactive),–
CCOC1=CC(=O)OC(c2ccccc2)C1 (stereo not drawn),3.24% (inactive),–
N#CC(c1ccc(Cl)cc1)c1ccc(Cl)nn1 (stereo not drawn),-4.67% (inactive),–
CCOC(=O)c1ccc(-c2ccc(C=O)o2)cc1,7.58% (inactive),–
Cc1cc(NC(=O)c2c(F)c(F)c(F)c(F)c2F)no1,14.5% (inactive),–
Cc1cc(NC(=O)c2cc([N+](=O)[O-])cc([N+](=O)[O-])c2C)no1,5.73% (inactive),–
CCCCCC1CC(COc2ccccc2)OC1=O (stereo not drawn),-10.5% (inactive),–
O=C(c1cccc([N+](=O)[O-])c1)N1CC2C3C=CC(C3)C2C1 (stereo not drawn),5.48% (inactive),–
Cc1ccc(S(=O)(=O)NCCC(C)C)cc1[N+](=O)[O-],1.56% (inactive),–
COc1ccc(C(C#N)c2ccc(Cl)nn2)cc1 (stereo not drawn),-3.93% (inactive),–
N#CC(c1ccccc1)c1cccc(Cl)n1 (stereo not drawn),-11.7% (inactive),–
COC(=O)c1ccc(/C=C(\C#N)c2ccccn2)cc1,9.37% (inactive),–
COC(=O)c1ccc(NC(=S)N2CCCC2)cc1,12% (inactive),–
Nc1ccc(OCc2ccccc2)cc1[N+](=O)[O-],3.9% (inactive),–
Cc1cc(NC(=O)Nc2ccccc2[N+](=O)[O-])no1,–,> 50 µM (inactive)
O=[N+]([O-])c1ccc(N2CCCCC2)cc1,8.85% (inactive),–
CO/N=C/c1cn(-c2ccc(Cl)cc2)nn1,-0.342% (inactive),–
COC(=O)c1cc(-c2ccc(Br)cc2)on1,–,47 µM
